From PMC8359378 (British Journal of Clinical Pharmacology, 2021)
“Also recorded” adds a separate entry of the source. Marks after values point to notes of the source that are not given here.

Tested on: healthy subjects
Assay: safety and tolerability
Format: in vivo, human
[1] = Part A, single dose 1 mg, fasted
[2] = Part A, single dose 5 mg, fasted
[3] = Part A, single dose 20 mg, fasted
[4] = Part A, single dose 80 mg, fasted
[5] = Part A, single dose 150 mg, fasted
[6] = Part A, single dose 300 mg, fasted
[7] = Part B, 80 mg QD for 14 days, fed
[8] = Part B, 150 mg QD for 14 days, fed
[9] = Part B, 250 mg QD for 14 days, fed

`Nc1ccc(-c2nc([C@H]3CCc4cc(-c5cc(Cl)ccc5-n5cnnn5)cc(=O)n43)c(F)[nH]2)c(F)n1` [ONO‐7684] was tested, and the “treatment‐related TEAE of lethargy (mild), subjects” value (Part A, 5 mg group) was 16.7%, the “treatment‐related TEAE of headache (moderate), subjects” value (Part A, 300 mg group) was 16.7% and the “Abdominal pain upper TEAE, subjects” value [1] was 0 n (%). The “All TEAEs, subjects” value [1] was 0 n (%), the “Dizziness TEAE, subjects” value [1] was 0 n (%) and the “Gonorrhoea TEAE, subjects” value [1] was 0 n (%). For the same molecule, the “Headache TEAE, subjects” value [1] was 0 n (%), the “Lethargy TEAE, subjects” value [1] was 0 n (%) and the “Nasopharyngitis TEAE, subjects” value [1] was 0 n (%). The “Nausea TEAE, subjects” value [1] was 0 n (%), the “Pain TEAE, subjects” value [1] was 0 n (%) and the “Skin laceration TEAE, subjects” value [1] was 0 n (%). For the same molecule, the “Thrombocytopenia TEAE, subjects” value [1] was 0 n (%), the “Abdominal pain upper TEAE, subjects” value [2] was 0 n (%) and the “All TEAEs, subjects” value [2] was 1 (16.7) n (%). The “Dizziness TEAE, subjects” value [2] was 0 n (%), the “Gonorrhoea TEAE, subjects” value [2] was 0 n (%) and the “Headache TEAE, subjects” value [2] was 0 n (%). The “Lethargy TEAE, subjects” value [2] was 1 (16.7)^b n (%), the “Nasopharyngitis TEAE, subjects” value [2] was 1 (16.7) n (%) and the “Nausea TEAE, subjects” value [2] was 0 n (%). For the same molecule, the “Pain TEAE, subjects” value [2] was 0 n (%), the “Skin laceration TEAE, subjects” value [2] was 0 n (%) and the “Thrombocytopenia TEAE, subjects” value [2] was 0 n (%). For the same molecule, the “Abdominal pain upper TEAE, subjects” value [3] was 1 (16.7) n (%), the “All TEAEs, subjects” value [3] was 1 (16.7) n (%) and the “Dizziness TEAE, subjects” value [3] was 1 (16.7) n (%). The “Gonorrhoea TEAE, subjects” value [3] was 0 n (%), the “Headache TEAE, subjects” value [3] was 0 n (%) and the “Lethargy TEAE, subjects” value [3] was 0 n (%). The “Nasopharyngitis TEAE, subjects” value [3] was 0 n (%), the “Nausea TEAE, subjects” value [3] was 1 (16.7) n (%) and the “Pain TEAE, subjects” value [3] was 0 n (%). The “Skin laceration TEAE, subjects” value [3] was 0 n (%), the “Thrombocytopenia TEAE, subjects” value [3] was 0 n (%) and the “Abdominal pain upper TEAE, subjects” value [4] was 0 n (%). For the same molecule, the “All TEAEs, subjects” value [4] was 2 (33.3) n (%), the “Dizziness TEAE, subjects” value [4] was 0 n (%) and the “Gonorrhoea TEAE, subjects” value [4] was 1 (16.7) n (%). The “Headache TEAE, subjects” value [4] was 1 (16.7) n (%), the “Lethargy TEAE, subjects” value [4] was 0 n (%) and the “Nasopharyngitis TEAE, subjects” value [4] was 0 n (%). For the same molecule, the “Nausea TEAE, subjects” value [4] was 0 n (%), the “Pain TEAE, subjects” value [4] was 0 n (%) and the “Skin laceration TEAE, subjects” value [4] was 0 n (%). The “Thrombocytopenia TEAE, subjects” value [4] was 0 n (%), the “Abdominal pain upper TEAE, subjects” value (Part A, single dose 80 mg, fed) was 0 n (%) and the “All TEAEs, subjects” value (Part A, single dose 80 mg, fed) was 1 (16.7) n (%). For the same molecule, the “Dizziness TEAE, subjects” value (Part A, single dose 80 mg, fed) was 0 n (%), the “Gonorrhoea TEAE, subjects” value (Part A, single dose 80 mg, fed) was 0 n (%) and the “Headache TEAE, subjects” value (Part A, single dose 80 mg, fed) was 1 (16.7) n (%). The “Lethargy TEAE, subjects” value (Part A, single dose 80 mg, fed) was 0 n (%), the “Nasopharyngitis TEAE, subjects” value (Part A, single dose 80 mg, fed) was 0 n (%) and the “Nausea TEAE, subjects” value (Part A, single dose 80 mg, fed) was 0 n (%). The “Pain TEAE, subjects” value (Part A, single dose 80 mg, fed) was 0 n (%), the “Skin laceration TEAE, subjects” value (Part A, single dose 80 mg, fed) was 0 n (%) and the “Thrombocytopenia TEAE, subjects” value (Part A, single dose 80 mg, fed) was 0 n (%). The “Abdominal pain upper TEAE, subjects” value [5] was 0 n (%), the “All TEAEs, subjects” value [5] was 0 n (%) and the “Dizziness TEAE, subjects” value [5] was 0 n (%). For the same molecule, the “Gonorrhoea TEAE, subjects” value [5] was 0 n (%), the “Headache TEAE, subjects” value [5] was 0 n (%) and the “Lethargy TEAE, subjects” value [5] was 0 n (%). For the same molecule, the “Nasopharyngitis TEAE, subjects” value [5] was 0 n (%), the “Nausea TEAE, subjects” value [5] was 0 n (%) and the “Pain TEAE, subjects” value [5] was 0 n (%). For the same molecule, the “Skin laceration TEAE, subjects” value [5] was 0 n (%), the “Thrombocytopenia TEAE, subjects” value [5] was 0 n (%) and the “Abdominal pain upper TEAE, subjects” value [6] was 0 n (%). For the same molecule, the “All TEAEs, subjects” value [6] was 2 (33.3) n (%), the “Dizziness TEAE, subjects” value [6] was 0 n (%) and the “Gonorrhoea TEAE, subjects” value [6] was 0 n (%). The “Headache TEAE, subjects” value [6] was 2 (33.3)^a n (%), the “Lethargy TEAE, subjects” value [6] was 0 n (%) and the “Nasopharyngitis TEAE, subjects” value [6] was 0 n (%). For the same molecule, the “Nausea TEAE, subjects” value [6] was 0 n (%), the “Pain TEAE, subjects” value [6] was 0 n (%) and the “Skin laceration TEAE, subjects” value [6] was 0 n (%). The “Thrombocytopenia TEAE, subjects” value [6] was 1 (16.7) n (%), the “All TEAEs, subjects” value [7] was 2 (33.3) n (%) and the “Bleeding time prolonged TEAE, subjects” value [7] was 0 n (%). For the same molecule, the “Dizziness TEAE, subjects” value [7] was 1 (16.7) n (%), the “Headache TEAE, subjects” value [7] was 1 (16.7) n (%) and the “Muscle twitching TEAE, subjects” value [7] was 1 (16.7) n (%). For the same molecule, the “All TEAEs, subjects” value [8] was “No TEAEs”, the “Bleeding time prolonged TEAE, subjects” value [8] was 0 n (%) and the “Dizziness TEAE, subjects” value [8] was 0 n (%). For the same molecule, the “Headache TEAE, subjects” value [8] was 0 n (%), the “Muscle twitching TEAE, subjects” value [8] was 0 n (%) and the “All TEAEs, subjects” value (Part B, 150 mg QD for 14 days, fed, listed as ONO 7684) was 0 n (%). The “All TEAEs, subjects” value [9] was “No TEAEs”, the “Bleeding time prolonged TEAE, subjects” value [9] was 0 n (%) and the “Dizziness TEAE, subjects” value [9] was 0 n (%). The “Headache TEAE, subjects” value [9] was 0 n (%), the “Muscle twitching TEAE, subjects” value [9] was 0 n (%) and the “All TEAEs, subjects” value (Part B, 250 mg QD for 14 days, fed, listed as ONO 7684) was 0 n (%). The bleeding risk (Parts A and B) was “no evidence to suggest a bleeding risk; also recorded: no evidence of a bleeding risk”, the “severe or serious TEAEs, TEAEs leading to discontinuation” value (Parts A and B) was “no severe or serious TEAEs” and the tolerability (all dose levels, single and repeated doses) was “well tolerated at all dose levels tested”.
